# Test results: patent US10729770B2, “Bacterial influence on regulation of appetite via ClpB protein mimicry of alpha-MSH” (priority 2013, dated 2020)
# Key:
# anti-α-MSH IgG = conditions: 20 and 10 μg of ClpB
# Protocol: Following 2D-PAGE, E. coli cytoplasmic proteins were transferred onto Hybond-ECL PVDF membrane (GE Healthcare) via a dry transfer method (Trans Blot Cell, Bio-Rad, USA) and a constant current of 0.8 mA.cm^−2 of the membrane size for 2 h. After transfer, membranes were blocked with 5% (wt:vol) milk (Regilait, France) in phosphate-buffered saline (PBS; 10 mmol·l^−1 […], and 150 mM·l^−1 NaCl) plus 0.05% (vol:vol) Tween 20.
# α-MSH [1] = target: T1, α-MSH (Homo sapiens, UniProt P01189); experiment: Affinity kinetics assay (surface plasmon resonance, BIAcore) of mouse IgG for α-MSH; format: binding; conditions: ClpB-immunized mice compared with controls
# T1 construct: endogenous peptide hormone of the melanocortin family, with a tridecapeptide structure; purchased Bachem AG
# Protocol: (§2) IgG purification and affinity assay were performed according to a published protocol (Legrand et al., Protoc Exch 2014, doi:10.1038/protex2014.004). Extraction of plasma globulins was done by plasma acidification and separation on C18 SEP column (Phoenix Pharmaceuticals, Burlingame, Calif., USA), then 500 μl of mouse plasma was mixed with 500 μl of buffer A (1% trifluoroacetic acid in water). The column was activated in 1 ml of buffer B (60% acetonitrile in 1% trifluoroacetic acid) by 3 min centrifugation with 700 r.p.m. and rinsed three times with 3 ml of buffer A. Diluted plasma (1:1 in buffer A) was added to the column and the effluent (1 ml) was saved (frozen at −20° C.) for further purification of IgG. Total IgG were purified from the effluents of mouse plasma samples using the Melon Gel Kit (Thermo Fisher Scientific, Rockford, Ill., USA). Plasma effluents diluted 1:4 in kit's purification buffer was added on washed melon gel deposited in a column. Column was spun 1 min at 6000 r.p.m., and the IgG containing effluent was saved and frozen at −20° C. before lyophilization. […]
# (§3) Between injections of each sample, the binding surface was regenerated with 10 mM NaOH, resulting in the same baseline level of the sensorgram. The affinity kinetic data were analyzed using BiaEvaluation 4.1.1 program (GE Healthcare). […]
# α-MSH [2] = target: T1, α-MSH; experiment: ELISA of plasma auto-antibodies reacting with α-MSH; format: in vivo
# Excerpt: (§1) Each determination was done in duplicate.
# [3] = target: T2, adrenocorticotropic hormone (Homo sapiens, UniProt P01189); experiment: ELISA of plasma IgG reacting with adrenocorticotropic hormone; format: in vivo; conditions: ClpB immunization study
# T2 construct: purchased Bachem AG
# T2 sequence (P01189 138-176 limits assumed): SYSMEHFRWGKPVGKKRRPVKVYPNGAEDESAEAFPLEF
# Excerpt: as §1
# ClpB protein [4] = target: T3, ClpB protein (Escherichia coli, UniProt P63284); conditions: ClpB-immunized mice
# Protocol: as §2, §3
# [5] = Locomotor activity and anxiety tests (open field, elevated O-maze) in immunized mice; format: in vivo
# Protocol: After the feeding study, mice were placed in individual mouse-holding cages with food and water available ad libitum, and were analyzed for locomotor activity and anxiety in 0-maze (Med Associate, Inc., St Albans, Vt., USA) tests performed during 2 consecutive days. Two hours after the 0-maze test, mice were killed by decapitation in a guillotine and trunk blood was collected into EDTA-containing tubes. Plasma was separated by centrifugation at 3500 r.p.m. ([…]) for 10 min at 4° C. and stored at −80° C. before assay.
# After feeding study in the BioDAQ cages, mice were analyzed for locomotor activity using a Versamax Animal Activity Monitor (AccuScan Instruments, Inc., Columbus, Ohio, USA). Next day after the locomotor activity test, all mice were tested for their anxiety in an elevated O-maze. The elevated-O-maze is a variation of more commonly used elevated plusmaze pharmacologically validated for anxiety testing in rodents. The advantage of the O-maze is that it lacks the ambiguous central square of the traditional plus-maze. The O-maze consisted of a circular infrared platform (outer diameter 120 cm) elevated 80 cm above the floor, featuring two open and two closed segments made of gray plastic. The closed segments were enclosed by walls extending 20 cm above the surface of the maze and covered with a black infrared plexiglas lid. Each test started by placing the mouse into one of the two closed segments. The test lasted 5 min and was recorded using a video camera placed above the O-maze and the EthoVision video tracking software (Noldus IT, Wageningen, The Netherlands). Measurements of distance and time spent in the open and closed segments were analyzed. Between each mouse tests, the 0-maze was cleaned with 30% ethanol.
# [6] = ClpB immunization in mice: body weight, food intake and feeding pattern (BioDAQ cages); format: in vivo
# Protocol: All experimental protocols were conducted according to US National Institutes of Health guidelines and EU directives, and animal experiments were approved by the Institutional Ethical Committees. Two-month-old male C57BI6 mice (Janvier Laboratories, L'Arbresle, France) were acclimated to the animal facility for 1 week with 12 h light-dark cycle, lights on at 0700 hours and were kept in standard mouse-holding cages (n=8) each. Mice were fed ad libitum with standard pelleted rodent chow (RM1 diet, SDS, UK) with drinking water always available and were manipulated daily by gentle holding and measuring body weight. During acclimatization, mice were distributed between four cages to obtain the similar mean body weight per mouse per cage. After 1 week of acclimatization, mice from each cage were assigned to one of four study group and received following treatments: (i) Group 1, ClpB immunization (n=8): ClpB protein (Delphi Genetics, Gosselies, Belgium) 50 μg per mouse in 200 μl of 1:1 (vol:vol) of PBS with Complete Freund's Adjuvant (Sigma, St Louis, Mo., USA), intraperitoneally (i.p.); (ii) Group 2, adjuvant injection controls (n=8): 200 μl of Complete Freund's Adjuvant in PBS (1:1 (vol:vol), i.p.); (iii) Group 3, PBS injection controls (n=8): 200 μl of PBS (i.p.); and (iv) Group 4, intact controls (n=8): received no injections, and then all mice were returned to their holding cages. Fifteen days later, mice were given a boost immunization and the following treatments: (i) Group 1 (n=8), ClpB protein (Delphi Genetics) 50 μg per mouse in 200 μl of 1:1 (vol:vol) of PBS with Incomplete Freund's Adjuvant (Sigma) i.p.; (ii) Group 2 (n=8): 200 μl of Incomplete Freund's Adjuvant in PBS (1:1 (vol:vol), i.p.); (iii) Group 3, (n=8): 200 μl of PBS (i.p.); and iv) Group 4, (n=8): received no injections. Next day after the boost, mice were placed individually into the BioDAQ mouse cages (Research Diets, Inc., New Brunswick, N.J., USA) each equipped with an automatic feeding monitor. Food (Serlab, Montataire France) and drinking water were available ad libitum and body weight was measured daily. After 3 days of acclimatization to the BioDAQ cages, mice received the following treatments: Groups 1, 2 and 3 (each n=8), that is, mice that have been immunized with ClpB, injected with adjuvants and with PBS, respectively, all received an acute injection of α-MSH peptide (Bachem AG), 100 μg·kg^−1 body weight in 100 μl of PBS (i.p.) at 1000 hours. The control mice (n=8) received PBS only (i.p.). Feeding data was continuously monitored and analyzed using the BioDAQ data viewer 2.3.07 (Research Diets). For the meal pattern analysis, the inter-meal interval was set at 300 s.
# ClpB protein [7] = target: T3, ClpB protein; conditions: in vivo
# Protocol: Plates were washed (5 min for three times) in PBS with 0.05% Tween 200, pH 7.4, and then incubated overnight at 4° C. with 100 μl of mouse plasma diluted 1:200 in PBS to determine free auto-Ab levels or diluted 1:200 in dissociative 3M NaCl and 1.5M glycine buffer, pH 8.9, to determine total auto-Ab levels. The plates were washed (three times) and incubated with 100 μl of alkaline phosphatase (AP)-conjugated goat antimouse IgG (1:2000) or anti-mouse IgM (1:1000), all obtained from Jackson ImmunoResearch Laboratories, Inc. (West Grove, Pa., USA). Following washing (three times), 100 μl of p-nitrophenyl phosphate solution (Sigma) was added as AP substrate. After 40 min of incubation at room temperature, the reaction was stopped by adding 3 N NaOH. The optical density was determined at 405 nm using a microplate reader Metertech 960 (Metertech Inc., Taipei, Taiwan). Blank optical density values resulting from the reading of plates without addition of plasma samples were subtracted from the sample optical density values. Each determination was done in duplicate.
# IgG and IgM antibodies reactive with ClpB were detected by enzyme-linked immunosorbent assay using corresponding anti-mouse or anti-human AP-conjugated antibodies (Jackson ImmunoResearch Laboratories, Inc.) as described above.
# [8] = open field, between study groups
# [9] = ClpB-immunized mice, last 10 days
# [10] = ClpB-immunized mice, α-MSH 100 μg/kg i.p.
# T3 sequence (P63284 whole entry): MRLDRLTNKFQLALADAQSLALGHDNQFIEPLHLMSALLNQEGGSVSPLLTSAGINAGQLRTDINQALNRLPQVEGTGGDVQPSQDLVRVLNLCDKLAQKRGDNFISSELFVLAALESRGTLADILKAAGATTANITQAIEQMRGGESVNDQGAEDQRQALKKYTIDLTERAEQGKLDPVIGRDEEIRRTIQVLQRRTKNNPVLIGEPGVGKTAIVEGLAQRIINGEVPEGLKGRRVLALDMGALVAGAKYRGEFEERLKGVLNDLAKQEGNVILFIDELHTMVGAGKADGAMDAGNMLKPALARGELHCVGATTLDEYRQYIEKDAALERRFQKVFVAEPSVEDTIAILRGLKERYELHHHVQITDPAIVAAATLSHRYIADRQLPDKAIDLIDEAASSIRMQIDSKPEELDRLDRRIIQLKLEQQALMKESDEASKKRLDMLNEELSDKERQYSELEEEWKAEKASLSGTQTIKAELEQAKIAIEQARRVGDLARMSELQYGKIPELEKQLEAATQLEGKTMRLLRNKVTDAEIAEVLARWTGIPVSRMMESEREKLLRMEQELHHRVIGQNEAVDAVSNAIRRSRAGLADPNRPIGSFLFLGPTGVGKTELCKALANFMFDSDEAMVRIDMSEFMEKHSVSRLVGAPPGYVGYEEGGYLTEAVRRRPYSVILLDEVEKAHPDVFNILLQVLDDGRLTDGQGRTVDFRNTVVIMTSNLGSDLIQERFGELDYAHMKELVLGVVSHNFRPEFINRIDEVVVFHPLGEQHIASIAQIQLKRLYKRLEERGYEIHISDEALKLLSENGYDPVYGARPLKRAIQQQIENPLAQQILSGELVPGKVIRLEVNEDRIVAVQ
substance,measurement,setting,value
"ClpB: chaperone protein ClpB from E. Coli K12, SEQ ID NO: 1, 857 amino acids; recombinant protein (Delphi Genetics) used for immunization",Western blot revealed with anti-α-MSH IgG,anti-α-MSH IgG,showed a 96-kDa band
same,affinity of α-MSH-reactive IgG for α-MSH,α-MSH [1],lower affinities
same,plasma levels of α-MSH IgM auto-Abs,"α-MSH [2]; ClpB immunization study, between the groups",did not significantly differ
same,plasma levels of α-MSH-reactive IgG,α-MSH [2]; ClpB-immunized mice,Increased
same,plasma adrenocorticotropic hormone-reactive IgG,[3],No significant differences
same,affinity of anti-ClpB IgG,ClpB protein [4],lower affinities
same,time spent in the closed arms of the O-maze,[5]; ClpB-immunized mice compared with all other groups,less time
same,distance moved in the closed arms of the O-maze,[5]; ClpB-immunized mice compared with controls,shorter distance
same,time spent in the open vs border areas,[5]; [8],did not significantly differ
same,total locomotor activity,[5]; [8],did not significantly differ
same,body weight for a few days after injections,"[6]; ClpB 50 μg per mouse i.p. together with adjuvant, C57Bl6 mice",lower
same,body weight vs controls,"[6]; ClpB-immunized mice, 4 weeks later",+5%
same,meal number,[6]; [9],did not change
same,meal size,[6]; [9],increased
same,mean daily food intake as compared with other groups,"[6]; ClpB-immunized mice, last 10 days of the experiment",+13%
same,24 h food intake following i.p. injection of α-MSH,[6]; [10],not affected
same,body weight following i.p. injection of α-MSH,[6]; [10],not affected
same,plasma anti-ClpB IgG levels,ClpB protein [7],strong increase
same,plasma levels of anti-ClpB IgG after adsorption with α-MSH,ClpB protein [7],significantly reduced
